Where a name gives a salt, the structure may show the parent alone. Some results are limits rather than exact numbers.

For assay [1], the target named is T1, TLR7 (Homo sapiens, UniProt Q9NYK1).
T1 construct: expressed in transfected cells; host or cells: HEK/293 cells carrying TLR7 and an NF-kB luciferase reporter
T1 sequence (Q9NYK1 27-1049): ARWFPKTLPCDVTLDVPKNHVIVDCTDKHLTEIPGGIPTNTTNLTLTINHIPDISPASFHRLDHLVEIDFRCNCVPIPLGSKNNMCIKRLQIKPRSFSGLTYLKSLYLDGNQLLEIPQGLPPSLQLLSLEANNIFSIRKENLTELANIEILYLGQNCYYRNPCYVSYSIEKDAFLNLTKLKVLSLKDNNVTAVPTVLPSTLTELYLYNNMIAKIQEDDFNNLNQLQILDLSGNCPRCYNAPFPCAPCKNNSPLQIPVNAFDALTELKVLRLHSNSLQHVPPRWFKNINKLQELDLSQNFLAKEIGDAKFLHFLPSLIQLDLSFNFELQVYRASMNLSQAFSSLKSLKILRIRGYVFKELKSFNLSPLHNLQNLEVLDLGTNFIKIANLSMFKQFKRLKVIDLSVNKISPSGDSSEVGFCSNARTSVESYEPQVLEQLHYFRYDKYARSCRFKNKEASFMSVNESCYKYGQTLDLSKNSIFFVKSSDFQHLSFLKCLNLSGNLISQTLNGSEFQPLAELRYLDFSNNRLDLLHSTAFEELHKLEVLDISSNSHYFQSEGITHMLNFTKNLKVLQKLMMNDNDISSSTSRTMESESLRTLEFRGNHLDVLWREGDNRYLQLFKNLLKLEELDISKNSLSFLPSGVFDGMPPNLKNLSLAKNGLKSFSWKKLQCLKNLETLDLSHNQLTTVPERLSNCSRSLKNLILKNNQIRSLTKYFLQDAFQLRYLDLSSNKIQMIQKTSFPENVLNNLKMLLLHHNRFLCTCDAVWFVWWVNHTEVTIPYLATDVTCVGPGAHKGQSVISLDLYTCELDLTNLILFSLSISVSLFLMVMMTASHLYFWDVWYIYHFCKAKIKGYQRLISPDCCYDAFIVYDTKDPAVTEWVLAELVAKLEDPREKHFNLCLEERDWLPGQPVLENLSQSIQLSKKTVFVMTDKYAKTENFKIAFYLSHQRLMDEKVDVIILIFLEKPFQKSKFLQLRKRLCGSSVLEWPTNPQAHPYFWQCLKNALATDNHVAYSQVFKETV
Description: HEK/293 TLR7 Cell Assay. It counts as cell-based. The conditions noted are these: TLR7/NFKb HEK cells, R848 agonist 10 uM final concentration, Steady-Glo readout; read-out: TLR7 potency. In short, it runs like this: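 TLR7/NF-κB reporter HEK293 cells, 5000/well, cultured 24 h, then preincubated 30 min with compound before R848 agonist (10 uM final). After 5 h stimulation, Steady-Glo luciferase luminescence read.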

Assay [2] addresses T2, TLR8 (Homo sapiens, UniProt Q9NR97).
T2 construct: expressed in transfected cells; host or cells: HEK/293 reporter cells (NF-kB luciferase)
T2 sequence (Q9NR97 27-1041): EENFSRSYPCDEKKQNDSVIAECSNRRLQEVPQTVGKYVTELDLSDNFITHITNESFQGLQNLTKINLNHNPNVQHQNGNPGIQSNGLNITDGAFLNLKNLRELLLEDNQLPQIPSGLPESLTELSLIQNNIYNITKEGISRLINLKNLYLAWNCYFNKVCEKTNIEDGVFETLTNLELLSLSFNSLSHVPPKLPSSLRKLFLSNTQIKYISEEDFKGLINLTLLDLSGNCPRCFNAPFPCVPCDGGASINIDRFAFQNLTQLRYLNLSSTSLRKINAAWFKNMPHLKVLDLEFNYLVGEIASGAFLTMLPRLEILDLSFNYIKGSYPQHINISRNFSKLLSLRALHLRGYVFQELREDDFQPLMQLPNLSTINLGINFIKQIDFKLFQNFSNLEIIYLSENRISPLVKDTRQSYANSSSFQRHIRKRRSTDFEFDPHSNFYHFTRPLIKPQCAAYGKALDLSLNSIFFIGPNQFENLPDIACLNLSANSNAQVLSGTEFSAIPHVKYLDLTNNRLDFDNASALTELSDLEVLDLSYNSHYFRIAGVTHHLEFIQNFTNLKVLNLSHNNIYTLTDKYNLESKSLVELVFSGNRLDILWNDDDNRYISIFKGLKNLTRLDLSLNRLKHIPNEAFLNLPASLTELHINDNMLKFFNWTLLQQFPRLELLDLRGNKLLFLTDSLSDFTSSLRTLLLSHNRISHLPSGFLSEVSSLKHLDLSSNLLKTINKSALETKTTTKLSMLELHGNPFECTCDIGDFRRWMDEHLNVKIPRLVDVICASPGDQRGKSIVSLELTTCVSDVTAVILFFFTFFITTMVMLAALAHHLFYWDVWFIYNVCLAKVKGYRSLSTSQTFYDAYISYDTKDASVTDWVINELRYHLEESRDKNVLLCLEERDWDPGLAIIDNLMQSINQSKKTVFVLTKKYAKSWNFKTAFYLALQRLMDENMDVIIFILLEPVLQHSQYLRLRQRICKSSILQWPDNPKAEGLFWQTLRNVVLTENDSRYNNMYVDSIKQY
In words: HEK/293 TLR8 Cell Assay. It counts as cell-based. The conditions noted are these: HEK cells, R848 agonist 30 uM final concentration, Steady-Glo readout; read-out: TLR8 potency.

As for `C[C@@H]1CN(c2cnc(C#N)c3ncccc23)C[C@H](CNC(=O)[C@]2(F)CCN(C)C2)O1` (single isomer, unassigned) [Example 335], the IC50 was 75 to 150 nM in assay [1] and less than 75 nM in assay [2].

For `CN1CC[C@](F)(CNC(=O)[C@@H]2CN(c3ccc(C#N)c4nccnc34)C[C@H](C(F)(F)F)O2)C1` (single isomer, unassigned) [Example 358], the IC50 in assay [1] and in assay [2] was less than 75 nM each time.

As to `CC(=O)NCCNC[C@H]1CN(c2cnc(C#N)c3ncccc23)C[C@@H](C)O1` [Example 380, N-(2-{[(2S,6R)-4-(8-Cyano-[1,7]naphthyridin-5-yl)-6-methyl-morpholin-2-ylmethyl]-amino}-ethyl)-acetamide], the IC50 in assay [1] and in assay [2] was more than 150 nM each time.

For the compound `C[C@@H]1CN(c2ccc(C#N)c3nccnc23)C[C@H](C(=O)NC[C@H]2COCCN2C)O1` (single isomer, unassigned) [Example 263], the IC50 in assay [1] and in assay [2] was less than 75 nM in each case.

For `C[C@H]1C[C@@H](NCCNS(C)(=O)=O)CN(c2ccc(C#N)c3nccnc23)C1` [Example 41, N-{2-[(3R,5S)-1-(8-Cyano-quinoxalin-5-yl)-5-methyl-piperidin-3-ylamino]-ethyl}-methanesulfonamide], the IC50 in assay [1] and in assay [2] was less than 75 nM in each case.

For `Cc1ccc(N2C[C@@H](C)C[C@@H](NC(=O)[C@@H]3CCCN3)C2)c2cccnc12` [Example 122, (2S)—N-[(3R,5S)-5-methyl-1-(8-methylquinolin-5-yl)piperidin-3-yl]pyrrolidine-2-carboxamide], the IC50 is more than 150 nM in assay [1] and less than 75 nM in assay [2].

For the compound `CN1CCC(F)(CNC(=O)[C@H]2CN(c3ccc(C#N)c4ncccc34)C[C@@H](C(F)(F)F)O2)CC1` (single isomer, unassigned) [Example 353], the IC50 in assay [1] and in assay [2] was less than 75 nM in each case.

On to `Cc1ccc(N2C[C@@H](C)C[C@@H](NC(=O)C(N)C3CC3)C2)c2cccnc12` (stereo partly drawn) [Example 133, 2-Amino-2-cyclopropyl-N-[(3R,5S)-5-methyl-1-(8-methyl-quinolin-5-yl)-piperidin-3-yl]-acetamide], for which the IC50 in assay [1] and in assay [2] was less than 75 nM each time.

Take `CN1CCC(O)(CC(=O)N[C@@H]2C[C@H](C(F)(F)F)CN(c3ccc(C(F)(F)F)c4ncccc34)C2)CC1` [Example 67, 2-(4-hydroxy-1-methylpiperidin-4-yl)-N-[(3R,5S)-5-(trifluoromethyl)-1-[8-(trifluoromethyl)quinolin-5-yl]piperidin-3-yl]acetamide]: the IC50 in assay [1] and in assay [2] was less than 75 nM in each case.

For `CC(C)[C@H](O)C(=O)N[C@@H]1C[C@H](C)CN(c2cnc(C#N)c3nccnc23)C1` [Example 196, (S)—N-[(3R,5S)-1-(5-Cyano-pyrido[3,4-b]pyrazin-8-yl)-5-methyl-piperidin-3-yl]-2-hydroxy-3-methyl-butyramide], the figures for the IC50 in assay [1] and in assay [2] were more than 150 nM and less than 75 nM, respectively.

On to `N#Cc1ncc(N2C[C@@H](C(F)(F)F)O[C@@H](C(=O)NC[C@]3(F)CCNC3)C2)c2cccnc12` (single isomer, unassigned) [Example 320], for which the IC50 in assay [1] and in assay [2] was more than 150 nM each time.

Regarding `CNC(=O)CCN[C@@H]1C[C@H](C)CN(c2ccc(C(F)(F)F)c3ncccc23)C1` [Example 56, N-Methyl-3-[(3R,5S)-5-methyl-1-(8-trifluoromethyl-quinolin-5-yl)-piperidin-3-ylamino]-propionamide], the results for the IC50 in assay [1] and in assay [2] were 75 to 150 nM and less than 75 nM, respectively.

Consider `C[C@H]1C[C@@H](NC(=O)CN2CCN(C)CC2)CN(c2cnc(C#N)c3nccnc23)C1` [Example 188, N-[(3R,5S)-1-(5-Cyano-pyrido[3,4-b]pyrazin-8-yl)-5-methyl-piperidin-3-yl]-2-(4-methyl-piperazin-1-yl)-acetamide], for which the IC50 in assay [1] and in assay [2] was less than 75 nM throughout.

Take `C[C@H]1C[C@@H](n2ccnc2)CN(c2ccc(C(F)(F)F)c3nccnc23)C1` [Example 157, 5-[(3R,5S)-3-(1H-imidazol-1-yl)-5-methylpiperidin-1-yl]-8-(trifluoromethyl)quinoxaline]: the IC50 in assay [1] was more than 150 nM; in assay [2], less than 75 nM.

For the compound `N#Cc1ccc(N2C[C@H](N)CC(F)(F)C2)c2cccnc12` (single isomer, unassigned) [Example 198], the IC50 in assay [1] and in assay [2] was more than 150 nM each time.

On to `C[C@H]1C[C@@H](NC(=O)CC2(O)CCN(C)CC2)CN(c2ccc(C(F)(F)F)c3nccnc23)C1` [Example 80, 2-(4-hydroxy-1-methylpiperidin-4-yl)-N-[(3R,5S)-5-methyl-1-[8-(trifluoromethyl)quinoxalin-5-yl]piperidin-3-yl]acetamide hydrochloride], for which the IC50 in assay [1] and in assay [2] was less than 75 nM in each case.

For the compound `C[C@H]1C[C@@H](OCCN2CCN(C)CC2)CN(c2ccc(C#N)c3nccnc23)C1` (racemic) [Example 1, 8-[(3S,5R)-3-methyl-5-[2-(4-methylpiperazin-1-yl)ethoxy]piperidin-1-yl]quinoxaline-5-carbonitrile], the IC50 in assay [1] and in assay [2] was less than 75 nM each time.

`CN1CC[C@@](F)(CNC(=O)[C@H]2CN(c3ccc(C#N)c4nccnc34)C[C@@H](C(F)(F)F)O2)C1` (single isomer, unassigned) [Example 355]: the IC50 in assay [1] and in assay [2] was less than 75 nM in each case.

In the case of `C[C@@H]1CN(c2ccc(C#N)c3nccnc23)C[C@H](C(=O)NCC2(F)CCNC2)O1` (stereo partly drawn) [Example 292, (2R,6R)-4-(8-Cyano-quinoxalin-5-yl)-6-methyl-morpholine-2-carboxylic acid (3-fluoro-pyrrolidin-3-ylmethyl)-amide], the IC50 in assay [1] and in assay [2] was less than 75 nM in each case.

Turning to `COC[C@@H](O)CNC(=O)[C@H]1CN(c2ccc(C#N)c3nccnc23)C[C@@H](C)O1` (single isomer, unassigned) [Example 327], the IC50 in assay [1] and in assay [2] was less than 75 nM in each case.

For `C[C@H]1C[C@@H](NC(=O)CC2(N)CC2)CN(c2ccc(C#N)c3nccnc23)C1` [Example 120, 2-(1-aminocyclopropyl)-N-[(3R,5S)-1-(8-cyanoquinoxalin-5-yl)-5-methylpiperidin-3-yl]acetamide], the IC50 in assay [1] and in assay [2] was less than 75 nM each time.

For `CN(C)CCC(=O)N[C@@H]1C[C@H](C(F)(F)F)CN(c2ccc(C#N)c3nccnc23)C1` [Example 75], the IC50 in assay [1] and in assay [2] was less than 75 nM throughout.

The values above are taken from patent US20210300940A1 (Merck Patent GmbH, priority 2018, published 2021).
